Experimental data published in US10557115B2, “Medium containing uridine and N-acetyl-D-mannosamine” (JCR Pharmaceuticals Co., Ltd., priority 2015, dated 2020).

Key:
[1] = tested on: CHO cells for expression of recombinant human erythropoietin; test: Capillary electrophoresis isoform analysis of recombinant human erythropoietin from cells cultured in supplemented medium; assay type: cell-based, Chinese hamster; details: basic medium added with 8 mM N-acetyl-D-mannosamine and/or 3 mM uridine, 5 days at 37° C., FIG. 3; for ratio of type I isoform to sum of all detected isoforms of recombinant human erythropoietin: type I = lowest isoelectric point
Protocol: (§1) The above master cells stored in liquid nitrogen were quickly thawed in 37° C. thermostatic bath, and suspended in a basic medium, the CD Opti CHO™ medium (Life Technologies Inc.) supplemented with 2 mM of GlutaMAX (Life Technologies Inc.) and 1×HT Supplement (Life Technologies Inc.). Then, the cells were precipitated by centrifugation and corrected. The corrected cells were suspended with the basic medium to obtain the cell suspension, and the number of the living cells was counted. The cell suspension was diluted to the living cell density of 2×10^5 cells/mL with the basic medium.
The cell suspension was dispensed into culture vessels by 120 mL each to generate four groups and incubated for five days at 37° C. under 5% CO2. This incubation was conducted by using Bio Jr.8 (100 mL×8 vessels culture device, AbleBiott Inc.), and pH of the medium was kept at 6.9 and the dissolved oxygen level (DO) was kept at 40% during the incubation. At this time, uridine and N-acetyl-D-mannosamine were added at the concentration as shown in Table 1 to each of the groups (group 1 to group 4). The incubation was conducted four times for each of the groups.
On the fifth day of the incubation above, 10 mL of each of the cultures was corrected to centrifuging tubes and centrifuged at 3,000 rpm for 10 minutes. Then, the culture supernatants were corrected and diluted 1.5 times with purified water. Then, 7.5 mL of each of these diluted culture supernatants was loaded on Capto™ adhere column, a multi-modal anion exchange resin (column volume: 1 mL, GE Healthcare Bioscience Inc.) pre-equilibrated with 20 mM Tris buffer (pH 7.5). After washing the column with 5 column volumes of 20 mM Tris buffer (pH 7.5), recombinant human erythropoietin adsorbed by the resin was eluted with 20 mM Tris buffer (pH 7.5) containing 200 mM of NaCl to obtain eluted fractions. And the eluted fractions were concentrated by Amicon Ultra-4 Centrifugal Filter Units (molecular weight cut off: 3 kDa, Millipore Inc.) to 100 μL of volume.
The concentrated solution of each of the groups was subjected capillary electrophoresis by using Bare Fused-Silica Capillary (50 μm ID, 375 μm OD, 50 cm length, Beckmann Coulter Inc.) attached to capillary electrophoresis system (P/ACE™ system MDQ, Beckmann Coulter Inc.). In doing this, 10 mM Tris buffer (pH 4.5) containing 10 mM of sodium chloride, 500 mM of sodium acetate, 7 M of urea, and 2.5 mM of putrescine was used as an electrophoresis buffer, and the electrophoresis was performed at constant current of 24 μA for 50 minutes. Further the wave length at 214 nm was monitored by an UV detector to detect the recombinant human erythropoietin subjected to the electrophoresis.
The isoform showing the lowest isoelectric point among the isoforms showing different isoelectric points when detected by the capillary electrophoresis above was named as type I, and further the isoforms were named as type II and type III in ascending order of isoelectric point. The ratios of type I, type II, and type III to sum of all of detected isoforms were calculated, respectively. And the ratios were compared between the groups. The ratios of type I, type II, and type III in the recombinant human erythropoietin of the group 1 obtained by culturing the cells in the basic medium were about 0.7%, about 5%, and about 15%, respectively (FIG. 3).

[2] = tested on: CHO cells for expression of recombinant human FSH; test: Sialic acid content (HPLC peak area) of recombinant human FSH from cells cultured in supplemented medium; assay type: cell-based, Chinese hamster; details: for relative value of sialic acid peak area of recombinant human FSH (basic medium = 100%): basic medium added with 8 mM N-acetyl-D-mannosamine and/or 3 mM uridine, 5 days at 37° C., FIG. 9
Protocol: as §1, with “obtain” for “obtain the”
The cell suspension was dispensed into culture vessels by 120 mL each to generate four groups and incubated for five days at 37° C. under 5% CO2. This incubation was conducted by using Bio Jr. 8 (100 mL×8 vessels culture device, AbleBiott Inc.), and pH of the medium was kept at 6.9 and the dissolved oxygen level (DO) was kept at 40% during the incubation. […]
50 μL of the concentrated solution of the purified recombinant human FSH of each of the groups was alkali-treated with 0.3M sodium hydroxide at 37° C. for 30 minutes, subsequently was acid-treated with 0.05M hydrochloric acid at 80° C. for 60 minutes to make glycans composing recombinant human FSH hydrolyzed to monosaccharides. Then, the solution were added with fluorescence reagent (a solution containing 9.6 mM of 1,2-diamino-4,5-methylene-dioxybenzene dihydrochloride, 24 mM of sodium hydrosulfite, and 1M of 2-mercaptoethanol), and heated at 50° C. for 150 minutes to fluorescently label the monosaccharides obtained by the hydrolysis. […] As a standard, sialic acid was concurrently treated with the same manner, and the standard of fluorescence-labeled sialic acid was obtained. The standard thus obtained was analyzed by HPLC using COSMOSIL 5C18-PAQ as reverse phase column, and the elution time of sialic acid, the time when the peak corresponding to sialic acid appeared, was measured. And each of the sample solutions was analyzed by HPLC and the area of peak corresponding to sialic acid was calculated. […]

SMILES	ratio of type II isoform to sum of all detected isoforms of recombinant human erythropoietin [1]	ratio of type III isoform to sum of all detected isoforms of recombinant human erythropoietin [1]	ratio of type I isoform to sum of all detected isoforms of recombinant human erythropoietin [1]	relative value of sialic acid peak area of recombinant human FSH (basic medium = 100%) [2]	increase of average number of sialic acid molecules per molecule of recombinant human FSH versus basic medium ([2]; basic medium added with 3 mM uridine, or with 8 mM N-acetyl-D-mannosamine and 3 mM uridine)
CC(=O)N[C@@H]1C(O)O[C@H](CO)[C@@H](O)[C@@H]1O (stereo partly drawn) [N-acetyl-D-mannosamine]	about 7%	about 20.7%	about 1.2%	about 100%	–
O=c1ccn([C@@H]2O[C@H](CO)[C@@H](O)[C@H]2O)c(=O)[nH]1 [uridine]	about 3.5%	about 13%	about 0.3%	about 112%	about 10%
